From article PMC5626781, “A Potent Tartrate Resistant Acid Phosphatase Inhibitor to Study the Function of TRAP in Alveolar Macrophages” (Scientific Reports, 2017)

How the values were obtained:
RAW264.7 macrophages [1] = assay: Transwell migration, collagen-coated membrane; assay type: cell-based, mouse; settings: AubipyOMe 80 nM, with or without RANKL 200 ng/ml
Method: Migration of RAW264.7 macrophages was assessed using a transwell-culturing system with inserts (Sigma-Aldrich) coated with osteopontin (10 μg/ml, R&D). Bovine collagen-coated inserts (10 μg/ml, Advanced Biometrix, Carlsbad, USA) were used as matrix control. Cells were incubated with or without RANKL (200 ng/ml) for 72 hours to induce TRAP activity or not[75], in the presence or absence of AubipyOMe (80 nM) in quadruplicate. The previously described TRAP inhibitor 5-PNA (100 μM) was used as selective positive control for TRAP inhibition[15],[23]. The number of cells migrated to the lower well, including dead cells, was calculated relative to control cells and individual experiments were done at least six times. […]
(§1) Transwell experiment to assess macrophage migration
(§2) Migration of RAW264.7 macrophages was assessed using a transwell-culturing system with inserts (Sigma-Aldrich) coated with osteopontin (10 µg/ml, R&D). Bovine collagen-coated inserts (Advanced Biometrix, Carlsbad, USA) were used as a matrix control. […] The number of cells migrated to the lower well, including dead cells, was calculated relative to control cells and individual experiments were done at least six times. […]

RAW264.7 macrophages [2] = assay: Live cell imaging of macrophage migration on osteopontin-coated wells; assay type: cell-based, mouse; settings: AubipyOMe 80 nM
Method: Briefly, RAW264.7 macrophages were plated on osteopontin-coated (10 μg/ml, R&D) Lab-tek chamber slides (Nunc, Hatfield, USA). Cells were incubated with or without RANKL (200 ng/ml) for 48 hours to induce TRAP activity or not[75], followed by labeling with carboxyfluorescein diacetate succinimidyl ester (CFSE, Invitrogen, Life Technologies Europe BV, Bleiswijk, The Netherlands) to visualize cells for live cell imaging using a confocal microscope (Solamere Nipkow Confocal Live Cell Imaging system, Solamere Technology Group, Salt lake city, USA). Cell movement was tracked overnight in the presence of 1% zymosan solution (Sigma-Aldrich), to stimulate cell movement, and with or without TRAP inhibitor AubipyOMe (80 nM). Pictures were taken every 10 min and were transformed into movies with Image J and Imaris x64 (Bitplane, Zurich, Switzerland) software.
IC50 of four independent experiments was calculated.
as §1, §2

`COc1ccnc(-c2cc(OC)ccn2)c1.F[P-](F)(F)(F)(F)F.[Cl][Au+][Cl]` [AubipyOMe, [Au(4,4′-dimethoxy-2,2′-bipyridine)Cl2][PF6]] was tested, and the “migration through collagen-coated membrane” value (RAW264.7 macrophages [1]) was “no effect”, the “migratory behavior of RANKL-pretreated macrophages, live cell tracking” value (RAW264.7 macrophages [2]; RANKL 200 ng/ml 48 h) was “inhibited this migratory behavior” and the “migratory behavior of control cells, live cell tracking” value (RAW264.7 macrophages [2]; no RANKL) was “did not affect the migratory behavior”.
